Test results: patent publication US6388089B1, “Brassinosteroid biosynthesis inhibitors” (Riken, priority 1998, dated 2002)

Tests used:
[1] = tested on: dwarfed rice plant (Oryza sativa cv. Tan-ginbozu); test: rice leaf lamina inclination bioassay, explantation method; type: in vivo; conditions: RMB-61 1 μg/plant; FIG. 1
[2] = tested on: rice (Oryza sativa cv. Koshihikari); test: rice growth bioassay (rice elongation test); type: in vivo; conditions: for growth of the rice plant (length of shoots): in vivo
Protocol: Further, rice growth bioassay was performed as follows. Seeds of rice (Oryza sativa cv. Koshihikari) were immersed in tap water for 2 hours, and then 10 seeds were immersed in 2 ml of 10 mM sodium acetate buffer (pH 5.4) containing 10 mM CaCl2 filled in a sterilized 15-ml test tube in the presence or absence of a test compound. The plants were grown in a growth chamber for 16 hours under a light condition (240 mE/m2s) and for 8 hours under a dark condition (25° C.). The plants were collected and the length of shoots was measured.

[3] = tested on: Arabidopsis (wild-type, Colombia); test: Arabidopsis germination assay; type: in vivo
Protocol: Arabidopsis mutants such as det2 (de-etiolation) and cpd (constitutive photomorphogenesis and dwarfism) show strong dwarfism manifested as curled leaves in deep green. Although this phenotype disappears when brassinolide is administered externally, other plant hormones such as IAA and gibberellin are ineffective. Based on these findings, the compound of the present invention (Compound 1 obtained in Example 1) was used in Arabidopsis (wild-type, Colombia) germination assay. Screening was performed under a light condition with criteria whether or not the compound generates abnormality 1) which is morphologically similar to mutants in the brassinosteroid biosynthesis and 2) which disappears when brassinolide is administered. It was also examined whether or not the morphological change induced by the test compound was restored to the morphology of wild-type by addition of braassinolide under a dark condition.
(§1) The Arabidopsis germination assay was performed as follows. Seeds of wild-type and det were treated at a low temperature (2° C.) for 2 days, and the surfaces were sterilized with 1% NaOCl solution for 2 minutes and washed seven times with sterilized distilled water. The seeds were sown on 1% agar solid medium containing 0.5×Murashige and Skoog (1962) salt and 1.5% (w/v) sucrose in a plastic plate in the presence or absence of the test compound. The wild-type plant and det2 plant were grown in a growth chamber for 16 hours under a light condition (240 mE/m2s) and for 8 hours under a dark condition (25° C.). For the screening experiment, the plate was sealed with Parafilm (American National Can Co., Ltd., Chicago, Ill., USA). For the restoration experiment that required a longer experimental period, the seeds were sown on 1% agar solid medium containing 0.5×Murashige and Skoog (1962) salt and 1.5% (w/v) sucrose in Agripot (Kirin Brewery Co., Ltd.). The plants were grown in a growth chamber for 16 hours under a light condition (240 mE/m2s) and for 8 hours under a dark condition (28° C.).

Arabidopsis = Arabidopsis assay with addition of brassinolide precursors; type: in vivo
Protocol: as §1
In order to confirm the action of RMB-61 also in the Arabidopsis assay, the seeds were grown with addition of the aforementioned brassinolide precursors, and recovery of the growth retardation caused by the RMB-61 treatment was observed. […] If RMB-61 is a specific inhibitor against the oxidation of cathasterone, it is expected that the morphological traits of the treated plants have similarities to the phenotypes of the mutants such as cpd (Szekeres et al., Cell, 85, pp.171-182, 1996). It is further expected that the action of RMB-61 will disappear when typhasterol, castasterone or brassinolide is administered, and in addition, the cpd phenotypes caused by brassinosteroids will disappear.

[4] = tested on: dwarfed rice plant (Oryza sativa cv. Tan-ginbozu); test: rice leaf lamina inclination bioassay, whole plant method; type: in vivo
Protocol: In the figure, “Angle” indicates an inclination angle; and the results are indicated with “Cont” for control (no treatment); “CT” for cathasterone (100 ng); “TE” for teasterone (100 ng); and “BL” for brassinolide (0.1 ng) wherein each dose per plant is shown. Generally, the biological activity of brassinosteroids is often evaluated by the in vitro rice leaf lamina inclination bioassay (explantation method: Wada et al., Plant Cell Physiol., 22, pp.323-325, 1981; Takatsuto, J. Chromat. A., 658, pp.3-15, 1994) which is highly sensitive and reliable. However, this conventional method is not suitable for analyzing the mechanism of action of brassinosteroid biosynthesis inhibitors. Recently, Fujioka et al. reported a method (whole plant method) in which the rice leaf lamina inclination bioassay is improved as an […] system. This method reflects the actual biosynthesis process of brassinosteroids by administration of various precursors of brassinolide. The inhibitory action of the compound of the present invention against the brassinolide biosynthesis was evaluated by the explantation method and the whole plant method. The rice leaf lamina inclination bioassay was performed essentially according to the procedure reported by Fujioka et al. as mentioned above by using a dwarfed rice plant (Oryza sativa cv. Tan-ginbozu). Seeds were immersed in water for 2 days at 28° C., and germinated seeds were subjected to selection of those having a uniform coleoptile length (about 1 to 2 mm). Five germinated seeds were planted on 30 ml of 1% agar medium contained in a glass jar (inner diameter: 26 mm×60 mm), and incubated under the aforementioned conditions for 3 days. Each test compound for the bioassay was dissolved in ethanol and placed on a lamina in an amount of […] by using a microsyringe. After the plants were incubated under the same growth conditions for 2 days, the external angle between the leaf lamina and its sheath was measured by using an annular protractor. Thirty plants in total (6 jars) were used for each treatment.

endogenous castasterone = conditions: side effect; cited from earlier work
vessel elements = conditions: cited from earlier work

SMILES	inhibition of the action of brassinolide (inclination angle) [1]	growth of the rice plant (length of shoots) [2]	effect on the gibberellin treatment ([2]; with gibberellin)	induction of dwarfism ([3]; at 10^−6 M, among the test compounds)	concentration at which shapes of the plants significantly resemble det2 mutant ([3]; dose-effect test)	dwarfism / morphological change on simultaneous administration of brassinolide ([3]; with brassinolide)	greening effect on administration of brassinosteroids (Arabidopsis; brassinosteroids except for cathasterone)	greening of plants (Arabidopsis; under weak light)	growth retardation in the presence of cathasterone (Arabidopsis; with cathasterone)	action of RMB-61 (growth retardation) in presence of brassinosteroids (Arabidopsis; with teasterone, 3-deoxoteasterone, typhasterol, castasterone or brassinolide)	effect on the inclination action by teasterone, typhasterol and castasterone ([4]; RMB-61 5 μg/plant, FIG. 2)	effect on the action of cathasterone (inclination angle) ([4]; RMB-61 5 μg/plant, cathasterone 100 ng, FIG. 2)	response of the rice plant to brassinosteroid after adding teasterone or brassinolide ([4]; rice plant in which the effect of cathasterone was negated by RMB-61)	amount of endogenous castasterone (endogenous castasterone)	differentiation of vessel elements induced by brassinolide (vessel elements)
CC(O)(c1ccccc1)C(Cc1ccc(Cl)cc1)n1cncn1 (centres unmarked) [Compound 1, 4-(4-chlorophenyl)-2-phenyl-3-(1,2,4-triazoyl)butan-2-ol]	absolutely no inhibition	no effect	completely failed to effect the gibberellin treatment	most potent induction of dwarfism	≥ 10^−5 M	negated	eliminated	promoted greening	maintained	strongly inhibited the action of RMB-61	failed to offset	inhibited the action of cathasterone	restored	–	–
CC(C)(C)C(O)/C(=C\c1ccc(Cl)cc1)n1cncn1 (centres unmarked) [Uniconazol]	–	strong growth retardation action	–	–	–	–	–	–	–	–	–	–	–	slight reduction	inhibits differentiation of vessel elements
CC(C)(C)[C@@H](O)[C@@H](Cc1ccc(Cl)cc1)n1cncn1 [paclobutrazol, reference compound]	–	elongation retardation action	–	–	–	–	–	–	–	–	–	–	–	–	–
